Where two headings read alike, the source gives them in different places.
Experiments:
VM21 melanoma cells = assay: MTT colorimetric assay, overall cell growth, VM21; assay type: cell-based, human; conditions: Homo sapiens, read-out: In Vitro IC50 Growth Inhibitory Values, VM21
How it was run: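 Growth is measured as remaining living cells relative to untreated controls after 72 h at 37 °C with compound at 10^-8 to 10^-4 M. Readout is MTT formazan absorbance at 570 nm.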

Aurora A kinase = molecular target: T1, Aurora A kinase (Homo sapiens, UniProt O14965); assay: Radiometric protein kinase assay (33 PanQinase), Aurora A; assay type: biochemical; conditions: for IC50: dose-response 0-100 μM, n=3, read-out: IC50: Concentration of drug needed in order to inhibit kinase activity by 50%, AurA; for inhibition at 57 µM: read-out: inhibition of Aurora A activity
T1 construct: made in house
T1 sequence (O14965 1-403): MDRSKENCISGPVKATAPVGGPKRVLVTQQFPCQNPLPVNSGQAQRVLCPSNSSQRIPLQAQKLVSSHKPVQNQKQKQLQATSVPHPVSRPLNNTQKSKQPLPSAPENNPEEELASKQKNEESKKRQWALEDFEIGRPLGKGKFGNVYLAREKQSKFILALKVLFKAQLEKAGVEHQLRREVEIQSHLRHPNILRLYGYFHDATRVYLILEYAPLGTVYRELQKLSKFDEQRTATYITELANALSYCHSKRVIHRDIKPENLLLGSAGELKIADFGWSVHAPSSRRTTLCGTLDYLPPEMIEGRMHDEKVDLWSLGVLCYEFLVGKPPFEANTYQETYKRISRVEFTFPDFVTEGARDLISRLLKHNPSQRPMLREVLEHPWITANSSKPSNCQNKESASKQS
Procedure: Note that at a concentration of 20 μM of the DLT compounds, the activity of the three Aurora kinases is reduced by approximately 40-50%, whereas at concentrations of 50 μM, i.e. the concentration used in the anti-proliferation assays of example 2B, the activity of said kinases is reduced by 60-75%.
The kinase inhibition profile of DLT95-Cl at 20 μM was determined using 255 protein kinases. Residual activity values were measured by testing each compound at one concentration in duplicate in each kinase assay. A radiometric protein kinase assay (33 PanQinase®Activity Assay) was used for measuring the kinase activity of 250 protein kinases. All kinase assays were performed in 96-well flashPlates™ from Perkin Elmer (Boston, Mass., USA) in a 50 μl reaction volume. The reaction cocktail was pipetted in 4 steps in the following order: • 10 μl of non-radioactive ATP solution (in H2O) • 25 μl of assay buffer/[γ-33P]-ATP mixture • 5 μl of test sample in 10% DMSO • 10 μl of enzyme/substrate mixture
The assay for all enzymes contained 60 mM HEPES-NaOH, pH 7.5, 3 mM MgCl2, 3 mM MnCl2, 3 μM Na-orthovanadate, 1.2 mM DTT, 50 μg/ml PEG20000, 1 μM ATP/[γ-33P]-ATP (approx. […] per well), protein kinase, and substrate. All PKC assays (except the PKC-mu and the PKC-nu assay) additionally contained 1 mM CaCl2, 4 mM EDTA, 5 μg/ml Phosphatidylserine and 1 μg/ml 1,2-Dioleyl-glycerol. The MYLK2, CAMK1D, CAMK2A, CAMK2B, CAMK2D, CAMK4, CAMKK2, DAPK2 and EEF2K assays additionally contained 1 μg/ml Calmodulin and 0.5 mM CaCl2. The PRKG1 and PRKG2 assays additionally contained 1 μM cGMP.
The protein kinases were expressed either in Sf9 insect cells or in E. coli as recombinant GST-fusion proteins or as His-tagged proteins. All kinases were produced from human cDNAs. Kinases were purified by affinity chromatography using either GSH-agarose (Sigma) or Ni-NTH-agarose (Qiagen). The purity of the protein kinases was examined by SDS-PAGE/coomassie staining. The identity of the protein kinases was checked by mass spectroscopy.
The reaction cocktails were incubated at 30° C. for 60 minutes. The reaction was stopped with 50 μl of 2% (v/v) H3PO4, plates were aspirated and washed two times with 200 μl 0.9% (w/v) NaCl. All assays were performed with a BeckmanCoulter Biomek 2000/SL robotic system.
Incorporation of ^33Pi (counting of “cpm”) was determined with a microplate scintillation counter (Microbeta, Wallac).
For each kinase, the median value of the cpm of three wells with complete reaction cocktails, but without kinase, was defined as “low control” […]. This value reflects unspecific binding of radioactivity to the plate in the absence of protein kinase but in the presence of the substrate. Additionally, for each kinase the median value of the cpm of three other wells with the complete reaction cocktail, but without any compound, was taken as the “high control”, i.e. full activity in the absence of any inhibitor […]. The difference between high and low control of was taken as 100% activity for each kinase. As part of the data evaluation the low control value of each kinase was subtracted from the high control value as well as from their corresponding “compound values”. The residual activity (in %) for each compound well was calculated by using the following formula: Res. Activity (%)=100×[(cpm of compound−low control)/(high control−low control)]

| IC50 (VM21 melanoma cells; MTT, 72 hours of incubation) [µM] | Structure (SMILES) | IC50 (Aurora A kinase) [µM] | IC50 (VM21 melanoma cells; 72 h) [µM] | inhibition at 57 µM (Aurora A kinase) [%] |
| --- | --- | --- | --- | --- |
| 71 | COc1cc(C(=O)OCCCCCCOC(=O)c2ccc(O)c(OC)c2)ccc1O [DLT11, Hexane-1,6-diyl bis-(4-hydroxy-3-methoxybenzoate)] |  |  |  |
|  | COc1cc(C(=O)OCc2cc(COC(=O)c3ccc(O)c(OC)c3)cc(COC(=O)c3ccc(O)c(OC)c3)c2)ccc1O [DLT95, [3,5-bis[(4-hydroxy-3-methoxy-benzoyl)oxymethyl]phenyl]methyl 4-hydroxy-3-methoxy-benzoate] | 9.1 |  |  |
|  | O=C(OCc1cc(COC(=O)c2ccc(O)c(Cl)c2)cc(COC(=O)c2ccc(O)c(Cl)c2)c1)c1ccc(O)c(Cl)c1 [DLT95-Cl, [3,5-bis[(4-hydroxy-3-chloro-benzoyl)oxymethyl]phenyl]methyl 4-hydroxy-3-chloro-benzoate] | 1.7 | 35 | ≥ 50 |
|  | O=C(OCc1cc(COC(=O)c2ccc(O)c(F)c2)cc(COC(=O)c2ccc(O)c(F)c2)c1)c1ccc(O)c(F)c1 [DLT95-F, [3,5-bis[(4-hydroxy-3-fluoro-benzoyl)oxymethyl]phenyl]methyl 4-hydroxy-3-fluoro-benzoate] | 3.2 | 65 | ≥ 50 |
| > 1000 | COc1cc(C(=O)O)ccc1O [vanillic acid, reference compound] | > 100 |  |  |

| Structure (SMILES) | IC50 (VM21 melanoma cells; MTT, 72 hours of incubation) [µM] | IC50 (Aurora A kinase) [µM] | IC50 (VM21 melanoma cells; 72 h) [µM] | inhibition at 57 µM (Aurora A kinase) [%] |
| --- | --- | --- | --- | --- |
| COc1cc(C(=O)OCCOC(=O)c2ccc(O)c(OC)c2)ccc1O [DLT1, Ethane-1,2-diyl bis-(4-hydroxy-3-methoxybenzoate)] | 55 |  |  |  |

— patent publication US20110280940A1, “Di-Vanilloyl And Tri-Vanilloyl Derivatives For Use In Anti-Cancer Therapy” (priority 2008, published 2011)
